Test results: patent publication US20220401418A1, “TREATMENT OF MALARIA USING HISTONE DEACETYLASE (HDAC) INHIBITORS” (FOUNDATION FOR NEGLECTED DISEASE RESEARCH, priority 2019, published 2022)
pIC50: −log10 of the molar value. Like-named read-outs stand apart in the source and are kept apart here.

Columns and labels:
Plasma stability, mouse = assay type: in vitro ADME
Description: (§1) Method Reference for Table 3: Chung T D Y et al. In Vitro and In Vivo Assessment of ADME and PK Properties during lead selection and lead optimisation-guidelines, benchmarks and rules of thumb. In: Assay Guidance Manual. 2015.

P. falciparum = assay: In vivo efficacy in humanized SCID mouse model of P. falciparum malaria; conditions: for reduction in parasitaemia: intra-peritoneal, humanized SCID mice
Description: In vivo efficacy assessed in humanized SCID mouse model of P. falciparum malaria.

HepG2 = assay: Cytotoxicity HepG2; assay type: cell-based
Description: as §1

CYP 2D6 = CYP 2D6 (Homo sapiens, UniProt P10635); assay: Cyp inhibition CYP 2D6; assay type: in vitro ADME
Sequence of CYP 2D6 (P10635 whole entry, species assumed): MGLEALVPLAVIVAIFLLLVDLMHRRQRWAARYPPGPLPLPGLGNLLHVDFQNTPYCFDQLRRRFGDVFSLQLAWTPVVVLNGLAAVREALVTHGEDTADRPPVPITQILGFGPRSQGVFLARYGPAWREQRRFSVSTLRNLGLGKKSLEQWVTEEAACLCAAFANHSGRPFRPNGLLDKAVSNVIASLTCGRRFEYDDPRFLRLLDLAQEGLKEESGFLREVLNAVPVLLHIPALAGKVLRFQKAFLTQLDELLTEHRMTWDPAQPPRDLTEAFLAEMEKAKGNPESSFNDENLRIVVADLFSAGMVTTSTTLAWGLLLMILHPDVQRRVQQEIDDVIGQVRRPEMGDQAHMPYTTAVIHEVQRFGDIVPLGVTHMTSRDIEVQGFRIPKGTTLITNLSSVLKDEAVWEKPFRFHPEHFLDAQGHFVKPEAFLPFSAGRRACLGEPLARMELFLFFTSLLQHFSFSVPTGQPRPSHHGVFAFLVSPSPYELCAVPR
Description: as §1

Plasma stability, dog = assay type: in vitro ADME
Description: as §1

[1] = Microsomal stability, HLM; assay type: in vitro ADME
Description: as §1

Plasma stability, human = assay type: in vitro ADME
Description: as §1

[2] = assay type: in vitro ADME; conditions: mouse, microsomes, 2 h, 10 μM
Description: as §1

Pf-HDAC1 = biological target: T1, Pf-HDAC1 (Plasmodium falciparum, UniProt Q7K6A1); assay: PfHDAC1 fluorescent activity assay; assay type: biochemical
T1 construct: His-tag; FLAG-tag; purchased BPS Bioscience
T1 sequence (Q7K6A1 1-449): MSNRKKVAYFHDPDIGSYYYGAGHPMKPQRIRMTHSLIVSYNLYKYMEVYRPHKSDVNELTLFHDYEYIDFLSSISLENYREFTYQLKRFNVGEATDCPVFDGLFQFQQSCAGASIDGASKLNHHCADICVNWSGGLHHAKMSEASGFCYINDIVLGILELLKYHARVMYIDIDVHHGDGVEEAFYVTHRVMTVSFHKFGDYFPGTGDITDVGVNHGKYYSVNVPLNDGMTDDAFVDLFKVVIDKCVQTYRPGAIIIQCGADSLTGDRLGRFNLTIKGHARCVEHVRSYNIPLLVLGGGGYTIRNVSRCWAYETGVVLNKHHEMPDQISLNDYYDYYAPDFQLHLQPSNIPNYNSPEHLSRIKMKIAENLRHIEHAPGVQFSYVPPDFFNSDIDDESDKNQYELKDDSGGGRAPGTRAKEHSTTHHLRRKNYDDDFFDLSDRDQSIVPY
Method: The fluorescence developed was measured with excitation at 350-380 nm and emission at 440-460 nm.

[3] = tested on: Hu HDAC (HeLa nuclear extract); assay: HDAC activity screening, fluorescence assay with HeLa nuclear extract; assay type: biochemical, human; conditions: HeLa nuclear extract as enzyme source
Method: HDAC inhibition screening was performed using a fluorescence-based assay with a fluorescent substrate (BocLys (Ac)-AMC Substrate). HeLa nuclear extract was used as the enzyme source.
The assay was performed in 96-well black microplates, and the total volume of the assay was set at 100 μl. […] The enzyme mixture was prepared by adding […] of the diluted enzyme (HeLa nuclear extract) to […] of HDAC buffer. From the enzyme mixture, 40 μl was taken and mixed with 10 μl of test compound (final concentration from 0.01 to 10 μM) or vehicle (control). The final mixture (50 μl) was added to each well which was then pre-incubated at 37° C. for 10 min. The HDAC reaction was started by adding 50 μl of HDAC substrate: Boc-Lys (Ac)-AMC (Anaspec, Inc Fremont, Calif., USA). […] The release of AMC was monitored by measuring the fluorescence at an excitation wavelength of 360 nm and an emission wavelength of 460 nm. Buffer and substrate alone served as blank.

CYP 1A2 = biological target: T2, CYP 1A2 (Homo sapiens, UniProt P05177); assay: Cyp inhibition CYP 1A2; assay type: in vitro ADME; conditions: summary statement on Table 3, all CYP isoforms tested
T2 sequence (P05177 1-516): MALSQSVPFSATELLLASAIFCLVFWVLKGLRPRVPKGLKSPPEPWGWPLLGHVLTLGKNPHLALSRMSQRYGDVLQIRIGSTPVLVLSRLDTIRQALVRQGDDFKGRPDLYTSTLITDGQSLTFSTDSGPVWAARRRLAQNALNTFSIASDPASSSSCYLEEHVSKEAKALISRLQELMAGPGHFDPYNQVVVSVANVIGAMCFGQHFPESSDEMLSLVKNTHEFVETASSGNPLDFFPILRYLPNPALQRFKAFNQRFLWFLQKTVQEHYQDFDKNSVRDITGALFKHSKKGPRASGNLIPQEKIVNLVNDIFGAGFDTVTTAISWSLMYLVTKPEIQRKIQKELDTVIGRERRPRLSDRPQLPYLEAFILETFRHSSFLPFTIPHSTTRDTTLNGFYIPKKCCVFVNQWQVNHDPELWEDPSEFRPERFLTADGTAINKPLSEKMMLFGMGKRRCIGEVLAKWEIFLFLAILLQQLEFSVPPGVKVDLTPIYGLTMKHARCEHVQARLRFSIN
Description: as §1

CYP 3A4 = CYP 3A4 (Homo sapiens, UniProt P08684); assay: Cyp inhibition CYP 3A4; assay type: in vitro ADME
Sequence of CYP 3A4 (P08684 whole entry, species assumed): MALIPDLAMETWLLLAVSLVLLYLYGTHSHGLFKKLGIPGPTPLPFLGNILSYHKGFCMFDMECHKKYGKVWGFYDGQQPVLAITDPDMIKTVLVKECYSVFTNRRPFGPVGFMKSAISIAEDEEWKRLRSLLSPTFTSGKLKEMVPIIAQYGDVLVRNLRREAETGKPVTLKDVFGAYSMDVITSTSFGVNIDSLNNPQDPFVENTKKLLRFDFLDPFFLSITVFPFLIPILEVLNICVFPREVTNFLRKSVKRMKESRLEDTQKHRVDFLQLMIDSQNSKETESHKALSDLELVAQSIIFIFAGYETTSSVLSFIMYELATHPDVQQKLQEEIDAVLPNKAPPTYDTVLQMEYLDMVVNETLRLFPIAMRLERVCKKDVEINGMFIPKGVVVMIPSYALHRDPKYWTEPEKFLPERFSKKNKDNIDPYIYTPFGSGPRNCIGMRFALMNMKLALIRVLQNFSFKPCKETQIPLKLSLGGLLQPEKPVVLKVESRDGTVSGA
Description: as §1

[4] = tested on: Plasmodium falciparum 3D7; assay: Plasmodium falciparum asexual blood-stage (ABS) assay; assay type: cell-based
Method: Plasmodium falciparum 3[…]. falciparum asexual blood-stage (ABS) assay, for which the cells were resuscitated from the stabilate and maintained at 5% haematocrit. Red blood cells obtained from the hospital were used to maintain the culture at 1% parasitaemia while screening. Plasmodium falciparum: 3D7 cells were used as a target strain for the assay. Mefloquine (Sigma-Aldrich) was used as a standard inhibitor. At day 1, […] of 10 mM mefloquine was added to columns 12 and 24 of the sterile 384-well black, clear-bottom, cell culture assay plates followed by compound curves which were added using Echo. The P. falciparum 3D7 cells were counted and 20 ml of culture was prepared at 5% haematocrit, 0.3% parasitaemia (as one batch, i.e., 12 plates, prepare 260 ml, to allow for WellMate prime volume) for each plate. From this, 50 μl of culture was added to all wells on all plates using WellMate with small bore tubing on full (S-1) speed. […] The plates were read on Victor plate reader using '384sybrgreen' protocol (excitation 485 nm, emission 528 nm) after which the plate contents were aspirated into 5% Virkon, and disposed of after autoclaving. Percentage inhibition for each test compound was calculated using the following equation: % Inhibition=100-(TEST COMPOUND-BLANK)/(NO INHIBITION-BLANK)*100)

Plasma Protein = assay: Plasma protein binding, human; assay type: in vitro ADME; conditions: summary statement on Table 3, across species
Description: as §1

HERG = HERG (Homo sapiens, UniProt Q12809); assay: HERG binding; conditions: summary statement on Table 3
Sequence of HERG (Q12809 whole entry): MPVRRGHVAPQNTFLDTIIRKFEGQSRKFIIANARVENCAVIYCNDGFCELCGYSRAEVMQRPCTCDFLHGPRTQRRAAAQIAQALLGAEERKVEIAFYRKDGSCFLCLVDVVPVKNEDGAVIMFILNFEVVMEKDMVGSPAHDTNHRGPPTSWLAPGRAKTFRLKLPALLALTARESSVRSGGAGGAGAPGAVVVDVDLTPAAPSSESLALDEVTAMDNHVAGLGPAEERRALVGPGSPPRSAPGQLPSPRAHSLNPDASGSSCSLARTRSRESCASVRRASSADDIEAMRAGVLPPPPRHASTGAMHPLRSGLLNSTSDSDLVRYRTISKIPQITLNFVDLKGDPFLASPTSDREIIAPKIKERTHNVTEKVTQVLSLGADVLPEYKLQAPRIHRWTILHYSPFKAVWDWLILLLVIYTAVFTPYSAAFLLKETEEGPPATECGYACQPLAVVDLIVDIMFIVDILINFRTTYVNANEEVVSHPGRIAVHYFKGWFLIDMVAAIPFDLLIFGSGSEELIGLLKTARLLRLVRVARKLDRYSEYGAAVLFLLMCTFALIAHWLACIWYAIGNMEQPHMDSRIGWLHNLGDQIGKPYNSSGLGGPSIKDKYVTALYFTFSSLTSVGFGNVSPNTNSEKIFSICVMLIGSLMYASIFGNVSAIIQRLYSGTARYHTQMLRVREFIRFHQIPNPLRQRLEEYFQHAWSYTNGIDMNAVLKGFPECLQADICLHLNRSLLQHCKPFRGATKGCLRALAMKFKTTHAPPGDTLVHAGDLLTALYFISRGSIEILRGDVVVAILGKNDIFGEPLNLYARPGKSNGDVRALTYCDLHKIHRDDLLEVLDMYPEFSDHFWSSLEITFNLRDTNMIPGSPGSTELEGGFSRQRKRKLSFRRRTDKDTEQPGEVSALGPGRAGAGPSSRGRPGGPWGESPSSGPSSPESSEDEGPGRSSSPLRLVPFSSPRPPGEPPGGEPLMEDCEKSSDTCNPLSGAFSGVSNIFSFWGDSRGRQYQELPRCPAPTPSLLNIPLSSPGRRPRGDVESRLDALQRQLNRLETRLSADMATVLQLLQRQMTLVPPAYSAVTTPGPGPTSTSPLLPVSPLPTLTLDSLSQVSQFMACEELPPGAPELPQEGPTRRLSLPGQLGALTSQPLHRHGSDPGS
Description: as §1

Plasma stability, rat = assay type: in vitro ADME
Description: as §1

[5] = Microsomal stability, RLM; assay type: in vitro ADME; conditions: Test Conc. 10 μM
Description: as §1

## O=C(NO)c1ccc(Cn2cc(-c3ccc(CN4CCCC4)cc3)nn2)cc1 [FNDR-20123, N-hydroxy-4-((4-(4-(pyrrolidin-1-ylmethyl)phenyl)-1H-1,2,3-triazol-1-yl)methyl)benzamide]
Plasma stability, mouse
  Plasma Stability (% remaining at 240 min): 89.16%
P. falciparum; 50 mg/kg
  reduction in parasitaemia: 98%
P. falciparum; 100 mg/kg
  reduction in parasitaemia: 99%
P. falciparum; oral, 50 mg/kg body weight for 4 days, humanized SCID mouse
  reduction in parasitemia: 67%
HepG2
  Cytotoxicity HepG2 (% @ 100 μM): 12.6%
CYP 2D6
  pIC50: 4.55
Plasma stability, dog
  Plasma Stability (% remaining at 240 min): 97.72%
[1]; HLM, Test Conc. 10 μM, 120 min
  Microsomal Stability (% remaining at 120 min): 85.31%
[1]; summary statement on Table 3, all microsome species
  liver microsomal stability: good
Plasma stability, human
  Plasma Stability (% remaining at 240 min): 98.94%
[2]
  Microsomal Stability (% remaining at 120 min): 76.15%
Pf-HDAC1
  pIC50: 7.51
[3]
  pIC50: ~8.52
[3]; listed as 20123
  pIC50: 8.52
CYP 1A2
  inhibition of the CYP isoforms tested: no inhibition
CYP 3A4
  pIC50: 4.57
[4]; Plasmodium falciparum, P. falciparum 3D7, 72 h, read-out: Anti-Malarial Activity Asexual Blood Stage IC50
  pIC50: 7.39
[4]; screen of proprietary compound library
  anti-malarial activity in library screen: potent anti-malarial activity
Plasma Protein
  plasma protein binding: low
HERG
  hERG liability: no hERG liability
Plasma stability, rat
  Plasma Stability (% remaining at 240 min): 88.90%
[5]
  Microsomal Stability (% remaining at 120 min): 74.56%
